Source: US4753953A, “Pyridonecarboxylic acid derivatives and antibacterial pharmaceutical compositions thereof” (priority 1985, dated 1988)
Converted amounts (≈) assume the structure as drawn. Read-outs that look alike come from different tables or passages of the source.

How the values were obtained:
[1] = tested on: P. cepacia GIFU 518; assay: MIC, in vitro antibacterial activity (standard strains); assay type: cell-based; settings: Burkholderia cepacia, GIFU518
[2] = tested on: E. coli ATCC 10536; assay: as above; assay type: cell-based, Escherichia coli; settings: Escherichia coli, ATCC10536; 10^6 cells/ml; Gram -; read-out: MIC
[3] = tested on: Bacillus subtilis PCI 219; assay: as above; assay type: cell-based; settings: Bacillus subtilis, PCI219; 10^6 cells/ml; Gram +; read-out: MIC
[4] = tested on: Alcaligenes faecalis 0114002; assay: as above; assay type: cell-based; settings: Alcaligenes faecalis, 0114002; 10^6 cells/ml; Gram -; read-out: MIC
[5] = tested on: F. necrophorum S-45; assay: as above; assay type: cell-based; settings: Fusobacterium necrophorum, S45; 10^6 cells/ml; Gram -; read-out: MIC
[6] = tested on: K. pneumoniae 1-220S; assay: as above; assay type: cell-based, Klebsiella pneumoniae; settings: Klebsiella pneumoniae, 1220S; 10^6 cells/ml; Gram -; read-out: MIC
[7] = tested on: C. perfringens KYA 13123; assay: microbe, parasite or virus in culture; assay type: cell-based; settings: Clostridium perfringens, KYA13123
[8] = tested on: Salmonella enteritidis IID 604; assay: MIC, in vitro antibacterial activity (standard strains); assay type: cell-based; settings: Salmonella enterica; 10^6 cells/ml; Gram -; read-out: MIC
[9] = tested on: S. pneumoniae IID 552; assay: as above; assay type: cell-based; settings: Streptococcus pneumoniae, IID552; 10^6 cells/ml; Gram +; read-out: MIC
[10] = tested on: S. pyogenes IID 692; assay: as above; assay type: cell-based, Streptococcus pyogenes; settings: Streptococcus pyogenes, IID692; 10^6 cells/ml; Gram +; read-out: MIC
[11] = tested on: P. aeruginosa IID 1210; assay: as above; assay type: cell-based, Pseudomonas aeruginosa; settings: Pseudomonas aeruginosa, IID1210; 10^6 cells/ml; Gram -; read-out: MIC
[12] = tested on: Staphylococcus aureus 209 P; assay: as above; assay type: cell-based; settings: Staphylococcus aureus, 209P; 10^6 cells/ml; Gram +; read-out: MIC
[13] = tested on: Peptostreptococcus anaerobius KYA 27337; assay: as above; assay type: cell-based; settings: Peptostreptococcus anaerobius, KYA27337; 10^6 cells/ml; Gram +; read-out: MIC
[14] = tested on: Pst. micros UPI 5464-1; assay: as above; assay type: cell-based; settings: Parvimonas micra, UPI54641; 10^6 cells/ml; Gram +; read-out: MIC
[15] = tested on: Veillonella parvula KYA 10790; assay: as above; assay type: cell-based; settings: Veillonella parvula, KYA10790; 10^6 cells/ml; Gram -; read-out: MIC
[16] = tested on: Bacteroides fragilis GM 7000; assay: as above; assay type: cell-based; settings: Bacteroides fragilis, GM7000; 10^6 cells/ml; Gram -; read-out: MIC
[17] = tested on: S. aureus IID 670 (Terajima); assay: as above; assay type: cell-based, Staphylococcus aureus; settings: Staphylococcus aureus, IID670; 10^6 cells/ml; Gram +; read-out: MIC
[18] = tested on: B. vulgatus KYA 29327; assay: as above; assay type: cell-based; settings: Phocaeicola vulgatus, KYA29327; 10^6 cells/ml; Gram -; read-out: MIC
[19] = tested on: B. distasonis 8503; assay: as above; assay type: cell-based; settings: Parabacteroides distasonis, 8503; 10^6 cells/ml; Gram -; read-out: MIC
[20] = tested on: B. thetaiotaomicron (0661); assay: as above; assay type: cell-based; settings: Bacteroides thetaiotaomicron; 10^6 cells/ml; Gram -; read-out: MIC
[21] = tested on: Klebsiella pneumoniae KY(GN)6445; assay: as above; assay type: cell-based; settings: Klebsiella pneumoniae; 10^6 cells/ml; Gram -; read-out: MIC
[22] = tested on: E. faecalis IID 682; assay: as above; assay type: cell-based; settings: Enterococcus faecalis, IID682; 10^6 cells/ml; Gram +; read-out: MIC
[23] = tested on: Proteus vulgaris IFO 3167; assay: as above; assay type: cell-based; settings: Proteus vulgaris, IFO3167; 10^6 cells/ml; Gram -; read-out: MIC
[24] = tested on: Serratia marcescens IID 618; assay: as above; assay type: cell-based; settings: Serratia marcescens, IID618; 10^6 cells/ml; Gram -; read-out: MIC
[25] = tested on: Morganella morganii IID 602; assay: as above; assay type: cell-based; settings: Morganella morganii, IID602; 10^6 cells/ml; Gram -; read-out: MIC
[26] = tested on: S. aureus Smith; assay: as above; assay type: cell-based, Staphylococcus aureus; settings: Staphylococcus aureus; 10^6 cells/ml; Gram +; read-out: MIC
[27] = tested on: E. limosum KYA 8486; assay: as above; assay type: cell-based; settings: Eubacterium limosum, KYA8486; 10^6 cells/ml; Gram +; read-out: MIC
[28] = tested on: P. mirabilis IID 994; assay: as above; assay type: cell-based; settings: Proteus mirabilis, IID994; 10^6 cells/ml; Gram -; read-out: MIC
[29] = tested on: B. fragilis 0558; assay: as above; assay type: cell-based, Bacteroides fragilis; settings: Bacteroides fragilis, 0558; 10^6 cells/ml; Gram -; read-out: MIC
[30] = tested on: Eubacterium lentum GAI 5242; assay: as above; assay type: cell-based; settings: Eggerthella lenta, GAI5242; 10^6 cells/ml; Gram +; read-out: MIC
[31] = tested on: Clostridium difficile I-E; assay: as above; assay type: cell-based; settings: Clostridioides difficile; 10^6 cells/ml; Gram +
[32] = tested on: C. ramosum; assay: as above; assay type: cell-based; settings: Thomasclavelia ramosa; 10^6 cells/ml; Gram +; read-out: MIC
[33] = tested on: P. aeruginosa IFO 12689; assay: as above; assay type: cell-based, Pseudomonas aeruginosa; settings: Pseudomonas aeruginosa, IFO12689
[34] = 10^6 cells/ml, Gram -, read-out: MIC

Row | Compound | MIC [2] [µg/mL] | MIC [3] [µg/mL] | MIC [4] [µg/mL] | MIC [5] [µg/mL] | MIC [6] [µg/mL] | MIC [7] [µg/mL] | MIC [8] [µg/mL] | MIC [9] [µg/mL] | MIC [10] [µg/mL] | MIC [11] [µg/mL] | MIC [12] [µg/mL] | MIC [13] [µg/mL] | MIC [14] [µg/mL] | MIC [15] [µg/mL] | MIC [16] [µg/mL] | MIC [17] [µg/mL] | MIC [18] [µg/mL] | MIC [19] [µg/mL] | MIC [20] [µg/mL] | MIC [21] [µg/mL] | also measured
1 | C[C@H]1CN(c2c(F)cc3c(=O)c(C(=O)O)cn(CCF)c3c2F)C[C@H]1N (relative stereo) [Example 25, 7-(cis-b 3-Amino-4-methyl-1-pyrrolidinyl)-6,8-difluoro-1-(2-fluoroethyl)-1,4-dihydro-4-oxo-3-quinolinecarboxylic acid] | 0.05 (≈ 0.135 µM) | 0.1 (≈ 0.271 µM) | 0.78 (≈ 2.11 µM) | 3.13 (≈ 8.47 µM) | 0.2 (≈ 0.542 µM) | 0.78 (≈ 2.11 µM) | 0.1 (≈ 0.271 µM) | 0.78 (≈ 2.11 µM) | 0.78 (≈ 2.11 µM) | 6.25 (≈ 16.9 µM) | 0.2 (≈ 0.542 µM) | 3.13 (≈ 8.47 µM) | 0.78 (≈ 2.11 µM) | 0.78 (≈ 2.11 µM) | 6.25 (≈ 16.9 µM) | 0.39 (≈ 1.06 µM) | 6.25 (≈ 16.9 µM) | 6.25 (≈ 16.9 µM) | 6.25 (≈ 16.9 µM) | 0.1 (≈ 0.271 µM) | MIC [1]: 1.56 µg/mL (≈ 4.22 µM); MIC [22]: 0.78 µg/mL (≈ 2.11 µM); MIC [23]: 0.05 µg/mL (≈ 0.135 µM); MIC [24]: 0.1 µg/mL (≈ 0.271 µM); MIC [25]: 0.1 µg/mL (≈ 0.271 µM); MIC [26]: 0.39 µg/mL (≈ 1.06 µM); MIC [27]: 6.25 µg/mL (≈ 16.9 µM); MIC [28]: 0.1 µg/mL (≈ 0.271 µM); MIC [29]: 3.13 µg/mL (≈ 8.47 µM); MIC [30]: 1.56 µg/mL (≈ 4.22 µM); MIC [31]: 6.25 µg/mL; MIC [32]: 25 µg/mL (≈ 67.7 µM); MIC [33, 34]: 1.56 µg/mL (≈ 4.22 µM)
2 | C[C@H]1CN(c2c(F)cc3c(=O)c(C(=O)O)cn(CCF)c3c2Cl)C[C@H]1N (relative stereo) [Example 27, 7-(cis-3-Amino-4-methyl-1-pyrrolidinyl)-8-chloro-6-fluoro-1-(2-fluoroethyl)-1,4-dihydro-4-oxo-3-quinolinecarboxylic acid] | 0.05 (≈ 0.13 µM) | 0.1 (≈ 0.259 µM) | 0.78 (≈ 2.02 µM) | 1.56 (≈ 4.04 µM) | 0.2 (≈ 0.518 µM) | 0.39 (≈ 1.01 µM) | 0.1 (≈ 0.259 µM) | 0.78 (≈ 2.02 µM) | 0.78 (≈ 2.02 µM) | 6.25 (≈ 16.2 µM) | 0.2 (≈ 0.518 µM) | 1.56 (≈ 4.04 µM) | 0.39 (≈ 1.01 µM) | 0.39 (≈ 1.01 µM) | 1.56 (≈ 4.04 µM) | 0.39 (≈ 1.01 µM) | 3.13 (≈ 8.11 µM) | 6.25 (≈ 16.2 µM) | 3.13 (≈ 8.11 µM) | 0.1 (≈ 0.259 µM) | MIC [1]: 0.78 µg/mL (≈ 2.02 µM); MIC [22]: 0.78 µg/mL (≈ 2.02 µM); MIC [23]: 0.05 µg/mL (≈ 0.13 µM); MIC [24]: 0.1 µg/mL (≈ 0.259 µM); MIC [25]: 0.1 µg/mL (≈ 0.259 µM); MIC [26]: 0.2 µg/mL (≈ 0.518 µM); MIC [27]: 6.25 µg/mL (≈ 16.2 µM); MIC [28]: 0.1 µg/mL (≈ 0.259 µM); MIC [29]: 1.56 µg/mL (≈ 4.04 µM); MIC [30]: 0.78 µg/mL (≈ 2.02 µM); MIC [31]: 6.25 µg/mL; MIC [32]: 25 µg/mL (≈ 64.8 µM); MIC [33]: 3.13 µg/mL (≈ 8.11 µM)
3 | CNCC1CN(c2c(F)cc3c(=O)c(C(=O)O)cn(C4CC4)c3c2Cl)CC1C (stereo not drawn) [Example 12, 8-Chloro-1-cyclopropyl-6-fluoro-1,4-dihydro-7-(3-methylaminomethyl-4-methyl-1-pyrrolidinyl)-4-oxo-3-quinolinecarboxylic acid] | 0.05 (≈ 0.123 µM) | 0.0125 (≈ 0.0306 µM) | 0.39 (≈ 0.956 µM) | 0.2 (≈ 0.49 µM) | 0.1 (≈ 0.245 µM) | 0.1 (≈ 0.245 µM) | 0.1 (≈ 0.245 µM) | 0.05 (≈ 0.123 µM) | 0.05 (≈ 0.123 µM) | 1.56 (≈ 3.82 µM) | 0.05 (≈ 0.123 µM) | 0.05 (≈ 0.123 µM) | 0.39 (≈ 0.956 µM) | 0.39 (≈ 0.956 µM) | 0.2 (≈ 0.49 µM) | 0.0125 (≈ 0.0306 µM) | 0.2 (≈ 0.49 µM) | 0.39 (≈ 0.956 µM) | 0.39 (≈ 0.956 µM) | 0.05 (≈ 0.123 µM) | MIC [1, 34]: 0.78 µg/mL (≈ 1.91 µM); MIC [22]: 0.05 µg/mL (≈ 0.123 µM); MIC [23]: 0.05 µg/mL (≈ 0.123 µM); MIC [24]: 0.2 µg/mL (≈ 0.49 µM); MIC [25]: 0.2 µg/mL (≈ 0.49 µM); MIC [26]: 0.05 µg/mL (≈ 0.123 µM); MIC [27]: 0.39 µg/mL (≈ 0.956 µM); MIC [28]: 0.2 µg/mL (≈ 0.49 µM); MIC [29]: 0.1 µg/mL (≈ 0.245 µM); MIC [30]: 0.2 µg/mL (≈ 0.49 µM); MIC [31]: 0.2 µg/mL; MIC [32]: 0.39 µg/mL (≈ 0.956 µM); MIC [33, 34]: 1.56 µg/mL (≈ 3.82 µM)
